{
  "source": "patent US20030097221A1",
  "about": "“Detection and characterization of psychoactives using parallel multi-site assays in brain tissue” (priority 2001, published 2003)",
  "type_in_all_cases": "cell-based, rat",
  "key": {"[1]": {"test_system": "glutamate receptor-mediated evoked excitatory synaptic transmission, hippocampal slice CA1", "assay": "Paired-pulse evoked fEPSP in CA1, Schaffer collateral stimulation (assays SC50, SC200), MED64 multi-electrode array", "parameters": "key to SC 50 ms Amplitude fEPSP 1st, Mean / SC 50 ms Amplitude fEPSP 2nd, Mean / SC 200 ms Widths fEPSP 1st, Mean / SC 200 ms Widths fEPSP 2nd, Mean: fractional change vs. last 5 min of pre-wash-in control phase", "method": "(§1) A 17-24 day old Sprague Dawley rat was decapitated after anesthesia with halothane (2-bromo-2-chloro-1,1,1-trifluoroethane; Sigma; B4388), and the whole brain was removed. The brain was immediately soaked for ˜2 min in ice-cold, oxygenated preparation buffer of the following composition (in mM): 124 NaCl, 26 NaHCO3, 10 glucose, 3 KCl, 1.25 NaH2PO4, 2 CaCl2, and 2 MgSO4. Appropriate portions of the brain were trimmed and placed on the ice-cold stage of a vibrating tissue slicer (Leica, Nussloch, Germany; VT-1000S). The stage was immediately filled with both oxygenated and frozen preparation buffers. The thickness of each tissue slice was 350 μm. Each slice was gently taken off the blade, and immediately soaked in the oxygenated artificial cerebrospinal fluid (ACSF) for at least 1 hr at room temperature. Then a slice was placed on the center of the MED probe. The slice was positioned to cover the 8×8 array. After positioning the slice, the MED probe was immediately placed in a box filled with 95% O2 and 5% CO2.\nDuring recording, the slices were continuously perfused with a solution of the following composition: ACSF (in mM): 124 NaCl, 26 NaHCO3, 10 glucose, 3 KCl, 1.25 kH2PO4, 2 CaCl2, 1 MgSO4. All compounds were bath applied at known concentrations and were prepared daily from frozen aliquots. Compounds were purchased from Sigma. Ampakines (CX516, CX546, CX554) were made fresh everyday, and used at concentrations: CX516, 250 μM; CX546, 250 μM; and CX554, 30 μM.\nBaseline, application, and recovery time was usually at 10, 20, and 30 min respectively.\nDuring electrophysiological recording, the slices on the MED probe were placed in a small CO2 incubator (Asahi Lifescience; model 4020) at 32° C. The slices were placed on an interface, and a moisturized with a 95% O2 and 5% CO2 gas mixture.\nEvoked field potentials at all 64 sites (minus stimulation sites) were recorded simultaneously with the multichannel recording system (Panasonic: MED64 system) at a 20 kHz sampling rate. In the case of the evoked response, one of the planar microelectrodes out of the 64 available was used for the stimulating cathode. Bipolar constant-current pulses (10-50 μA; 0.1 ms) were produced by the data acquisition software via the isolator. The stimulating microelectrode was selected by the 64-switch box.\nAll assays employ paired-pulse stimulation at various rat hippocampal sites to elicit evoked responses. The resulting field EPSP recordings were analyzed using Matlab software (The MathWorks, Inc.) by computing several response measures such as amplitude, halfwidth, and negative area, which apply to both the first and second evoked reponses. Amplitude was defined as the maximum depolarization magnitude relative to the average baseline reading prior to the first stimulation pulse. Halfwidth was defined as the duration of the depolarization phase of the evoked response at half its maximum amplitude value. Negative area was obtained by taking the magnitude of the integral of the evoked response curve over all segments with the same polarity as the depolarization phase. This integral spans a time window of 25 msec beginning one msec after the stimulation pulse.\nAmplitudes and halfwidths for both first and second elicited responses were computed for assays SC50, SC200, and CA3-1—50. For DG50 only first and second amplitudes were computed. Negative areas for first and second responses were computed for SC50, SC200, CA3-1—50, and MF50.\nAll response paramters were utilized to quantify candidate sample composition effects on the hippocampus. For a given response parameter, the candidate sample composition effect was defined as the percent change of the average measure during the last five minutes of the wash-in phase with respect to the average measure of the last five minutes of the preceding, pre-wash-in control phase. […]"}, "[2]": {"test_system": "glutamate receptor-mediated evoked excitatory synaptic transmission, hippocampal slice dentate gyrus", "assay": "Paired-pulse evoked fEPSP in dentate gyrus (assay DG50), MED64", "settings": "250 μM; 50 ms inter-pulse delay", "method": "as §1, with “CO2. […]” for “CO2.”\n(§2) Evoked field potentials at all 64 sites (minus stimulation sites) were recorded simultaneously with the multichannel recording system (Panasonic: MED64 system) at a 20 kHz sampling rate. […]\n(§3) All assays employ paired-pulse stimulation at various rat hippocampal sites to elicit evoked responses. The resulting field EPSP recordings were analyzed using Matlab software (The MathWorks, Inc.) by computing several response measures such as amplitude, halfwidth, and negative area, which apply to both the first and second evoked reponses. Amplitude was defined as the maximum depolarization magnitude relative to the average baseline reading prior to the first stimulation pulse. […]\nThe polarity of the evoked responses for assay DG50 was reversed before analysis because of the inverted voltage values recorded by the DG50 electrode. Assays SC50, SC200, MF50, and CA3-1—50, however, were analyzed without such a reversal. […]\n(§4) All response paramters were utilized to quantify candidate sample composition effects on the hippocampus. […]"}, "[3]": {"test_system": "glutamate receptor-mediated evoked excitatory synaptic transmission, hippocampal slice mossy fibers", "assay": "Paired-pulse evoked fEPSP, mossy fibers (assay MF50), MED64", "settings": "250 μM; 50 ms inter-pulse delay", "method": "A 17-24 day old Sprague Dawley rat was decapitated after anesthesia with halothane (2-bromo-2-chloro-1,1,1-trifluoroethane; Sigma; B4388), and the whole brain was removed. The brain was immediately soaked for ˜2 min in ice-cold, oxygenated preparation buffer of the following composition (in mM): 124 NaCl, 26 NaHCO3, 10 glucose, 3 KCl, 1.25 NaH2PO4, 2 CaCl2, and 2 MgSO4. Appropriate portions of the brain were trimmed and placed on the ice-cold stage of a vibrating tissue slicer (Leica, Nussloch, Germany; VT-1000S). The stage was immediately filled with both oxygenated and frozen preparation buffers. The thickness of each tissue slice was 350 μm. […]\nas §2, §3"}, "[4]": {"test_system": "hippocampal slice regions (CA1, DG, MF)", "assay": "Comparison between regions of the slice, area under the curve for all 4 assays (FIG. 9)", "settings": "prediction drawn from the results of FIG. 9", "method": "All assays employ paired-pulse stimulation at various rat hippocampal sites to elicit evoked responses. The resulting field EPSP recordings were analyzed using Matlab software (The MathWorks, Inc.) by computing several response measures such as amplitude, halfwidth, and negative area, which apply to both the first and second evoked reponses. Amplitude was defined as the maximum depolarization magnitude relative to the average baseline reading prior to the first stimulation pulse. Halfwidth was defined as the duration of the depolarization phase of the evoked response at half its maximum amplitude value. Negative area was obtained by taking the magnitude of the integral of the evoked response curve over all segments with the same polarity as the depolarization phase. This integral spans a time window of 25 msec beginning one msec after the stimulation pulse. […]\nas §4\nTo compare the response of tissue slices to candidate sample compositions between different regions of the slice, the area under the curve for all 4 assays was calculated.\nTo compare the effect of compounds in candidate sample compositions between different regions of a tissue slice, the area under the curve for all 4 assays was calculated. […]"}, "[5]": {"settings": "CX516 250 μM, individual slice files, normalized change over control"}, "[6]": {"settings": "CX516 250 μM, n = 4, normalized change over control"}},
  "note": "Values joined by “and” are separate entries in the source; they are usually repeats but may differ in a detail not shown here. Equal values may be shown once.",
  "data": [
    {"smiles": "O=C(c1ccc2nccnc2c1)N1CCCCC1", "note": "[CX516, 1-(Quinoxalin-6-ylcarbonyl)piperidine]", "values": [
      {"measurement": "amplitude of both responses in CA1", "setting": "[1]; 250 μM, 50 ms or 200 ms delay between stimulation pulses", "result": "increase in the amplitude"},
      {"measurement": "effect on half-width of both responses", "setting": "[1]; 250 μM, summary of Table 1", "result": "no effect"},
      {"measurement": "increase of the amplitude of first and second fEPSP", "setting": "[1]; 250 μM, summary of Table 1", "result": "15-17%"},
      {"measurement": "SC 50 ms Amplitude fEPSP 1st", "setting": "[1]; [5]", "result": "0.276 and 0.211 and 0.087 and 0.110"},
      {"measurement": "SC 50 ms Amplitude fEPSP 2nd", "setting": "[1]; [5]", "result": "0.246 and 0.192 and 0.044 and 0.085"},
      {"measurement": "SC 50 ms Widths fEPSP 1st", "setting": "[1]; [5]", "result": "0.020 and −0.023 and 0.063 and 0.007"},
      {"measurement": "SC 50 ms Widths fEPSP 2nd", "setting": "[1]; [5]", "result": "−0.001 and 0.017 and 0.045 and 0.026"},
      {"measurement": "SC 200 ms Amplitude fEPSP 1st", "setting": "[1]; [5]", "result": "0.260 and 0.206 and 0.093 and 0.114"},
      {"measurement": "SC 200 ms Amplitude fEPSP 2nd", "setting": "[1]; [5]", "result": "0.258 and 0.194 and 0.067 and 0.085"},
      {"measurement": "SC 200 ms Widths fEPSP 1st", "setting": "[1]; [5]", "result": "0.036 and −0.024 and 0.051 and −0.002"},
      {"measurement": "SC 200 ms Widths fEPSP 2nd", "setting": "[1]; [5]", "result": "0.035 and 0.001 and 0.049 and 0.037"},
      {"measurement": "SC 50 ms Amplitude fEPSP 1st, Change over Control (%)", "setting": "[1]; CX516 250 μM, n = 4", "result": 17.108, "unit": "%"},
      {"measurement": "SC 50 ms Amplitude fEPSP 2nd, Change over Control (%)", "setting": "[1]; CX516 250 μM, n = 4", "result": 14.178, "unit": "%"},
      {"measurement": "SC 50 ms Widths fEPSP 1st, Change over Control (%)", "setting": "[1]; CX516 250 μM, n = 4", "result": 1.658, "unit": "%"},
      {"measurement": "SC 50 ms Widths fEPSP 2nd, Change over Control (%)", "setting": "[1]; CX516 250 μM, n = 4", "result": 2.168, "unit": "%"},
      {"measurement": "SC 200 ms Amplitude fEPSP 1st, Change over Control (%)", "setting": "[1]; CX516 250 μM, n = 4", "result": 16.825, "unit": "%"},
      {"measurement": "SC 200 ms Amplitude fEPSP 2nd, Change over Control (%)", "setting": "[1]; CX516 250 μM, n = 4", "result": 15.088, "unit": "%"},
      {"measurement": "SC 200 ms Widths fEPSP 1st, Change over Control (%)", "setting": "[1]; CX516 250 μM, n = 4", "result": 1.525, "unit": "%"},
      {"measurement": "SC 200 ms Widths fEPSP 2nd, Change over Control (%)", "setting": "[1]; CX516 250 μM, n = 4", "result": 3.055, "unit": "%"},
      {"measurement": "SC 50 ms Amplitude fEPSP 1st, Mean", "setting": "[1]; [6]", "result": 0.171},
      {"measurement": "SC 50 ms Amplitude fEPSP 2nd, Mean", "setting": "[1]; [6]", "result": 0.142},
      {"measurement": "SC 50 ms Widths fEPSP 1st, Mean", "setting": "[1]; [6]", "result": 0.017},
      {"measurement": "SC 50 ms Widths fEPSP 2nd, Mean", "setting": "[1]; [6]", "result": 0.022},
      {"measurement": "SC 200 ms Amplitude fEPSP 1st, Mean", "setting": "[1]; [6]", "result": 0.168},
      {"measurement": "SC 200 ms Amplitude fEPSP 2nd, Mean", "setting": "[1]; [6]", "result": 0.151},
      {"measurement": "SC 200 ms Widths fEPSP 1st, Mean", "setting": "[1]; [6]", "result": 0.015},
      {"measurement": "SC 200 ms Widths fEPSP 2nd, Mean", "setting": "[1]; [6]", "result": 0.031},
      {"measurement": "kind of modulation of the responses in CA1 (halfwidth vs amplitude)", "setting": "[1]; CX516, CX546 250 μM, CX554 30 μM", "result": "amplitude only modulation"},
      {"measurement": "responses recorded in dentate gyrus (amplitude)", "setting": "[2]", "result": "increase"},
      {"measurement": "mossy fibers' response (area)", "setting": "[3]", "result": "increase"},
      {"measurement": "degree to which ampakines enhance activation of interneurons (rank order)", "setting": "[4]", "result": "CX554>CX546>CX516"}
    ]}
  ]
}
